Laboratory results from patent publication US10028916B2, “Orally disintegrating dosage form for administration of avanafil, and associated methods of manufacture and use” (Vivus, Inc., priority 2014, dated 2018).
≈ marks a conversion by molar mass, not a printed value. Like-named read-outs stand apart in the source and are kept apart here.

Columns and labels:
[1] = Aqueous solubility of avanafil by HPLC at a range of pH values; assay type: physicochemical; settings: sodium carbonate buffer, thermodynamic from solid, Solution 10, 0.1N Na2CO3, pH 10.0
[2] = as above; assay type: physicochemical; settings: thermodynamic from solid
Procedure: A high performance liquid chromatography (HPLC) procedure was used to evaluate the aqueous solubility of avanafil (obtained from Tanabe Seiyaku Co., LTD, purity, 97.0% to 103% with an observed purity of 98.89%; particle diameter, 10-20 microns with median observed particle diameter of 18.47 microns) at a range of pH values. The HPLC conditions were as follows: system, HP Model 1100; analytical column, Supelco Kromasil C8, 4.6 mm×250 mm, 5 μm particle size; assay injection volume, 20 μl; stock stability injection volume, 0.5 μl; needle wash volume, 91 μl; mobile phase flow rate, 1.00 ml/minute; column temperature, 30° C.; detection wavelength 246 nm; flow cell path length, 10 mm; range step 2.00 nm; threshold, 1.00 mAU; stop time, 30 minutes. Solutions 1, 2, 3, 6, 7, 8, 11, and 12 were buffered to pH values of 0.99, 2.00, 3.00, 6.00, 7.00, 8.00, 11.0, and 12.0, respectively, using a phosphate buffer, 0.1M KH2PO4. Solutions 4 and 5 were buffered to pH values of 4.00 and 5.00, respectively, using a sodium acetate buffer, 0.1M NaOAc, while solutions 9 and 10 were respectively buffered to pH values of 9.00 and 10.00 using a sodium carbonate buffer, 0.1M Na2CO3.

[3] = cited from earlier work

solubility [1]: < 0.05 µg/mL
solubility ([2]; phosphate buffer, aqueous buffer, Solution 1, 0.1M KH2PO4, pH 0.999): > 199000 µg/mL
solubility ([2]; phosphate buffer, aqueous buffer, Solution 2, 0.1M KH2PO4, pH 2.00): 35000 µg/mL (≈ 72300 µM)
solubility ([2]; phosphate buffer, aqueous buffer, Solution 3, 0.1M KH2PO4, pH 3.00): 1700 µg/mL (≈ 3510 µM)
solubility ([2]; phosphate buffer, aqueous buffer, Solution 6, 0.1M KH2PO4, pH 6.00): 1.28 µg/mL (≈ 2.64 µM)
solubility ([2]; phosphate buffer, aqueous buffer, Solution 7, 0.1M KH2PO4, pH 7.00): 0.233 µg/mL (≈ 0.481 µM)
solubility ([2]; phosphate buffer, aqueous buffer, Solution 8, 0.1M KH2PO4, pH 8.00): 0.052 µg/mL (≈ 0.107 µM)
solubility ([2]; phosphate buffer, aqueous buffer, Solution 11, 0.1M KH2PO4, pH 11.0): 0.0568 µg/mL (≈ 0.117 µM)
solubility ([2]; phosphate buffer, aqueous buffer, Solution 12, 0.1M KH2PO4, pH 12.0): < 0.05 µg/mL
solubility ([2]; sodium acetate buffer, aqueous buffer, Solution 4, 0.1M NaOAc, pH 4.00): 344 µg/mL (≈ 711 µM)
solubility ([2]; sodium acetate buffer, aqueous buffer, Solution 5, 0.1M NaOAc, pH 5.00): 19.5 µg/mL (≈ 40.3 µM)
solubility ([2]; sodium carbonate buffer, aqueous buffer, Solution 9, 0.1M Na2CO3, pH 9.00): < 0.05 µg/mL
solubility ([2]; water, ASTM Type II H2O, no buffer): 0.139 µg/mL (≈ 0.287 µM)
Structure (SMILES): COc1ccc(CNc2nc(N3CCC[C@H]3CO)ncc2C(=O)NCc2ncccn2)cc1Cl [avanafil, 4-[(3-chloro-4-methoxybenzyl)amino]-2-[2-(hydroxymethyl)-1-pyrrolidinyl]-N-(2-pyrimidinylmethyl)-5-pyrimidinecarboxamide]
mean reduction in Cmax ([3]; 100 mg with a high fat meal): 24%
mean reduction in Cmax ([3]; 200 mg with a high fat meal): 39%
route of clearance ([3]; result in words, mainly CYP3A4, minor extent CYP2C isoform): cleared predominantly by hepatic metabolism
decrease in AUC ([3]; taken with a high fat meal): ~3.8%
